4 compounds from patent US11731958B2, “Carboxamide compounds and uses thereof” (Incyte Corporation, priority 2018, dated 2023) can be followed below.

The assay deals with HPK1 (Homo sapiens (Human), UniProt Q92918). Nature of the assay: HPK1 Kinase Binding Assay. The following applies: LanthaScreen tracer 222 binding, active HPK1, one hour at 25° C. The procedure: A stock solution of 1 mM test compound was prepared in DMSO. The compound plate was prepared by 3-fold and 11-point serial dilutions. 0.1 μL of the compound in DMSO was transferred from the compound plate to the white 384 well polystyrene plates. The assay buffer contained 50 mM HEPES, pH 7.5, 0.01% Tween-20, 5 mM MgCl2, 0.01% BSA, and 5 mM DTT. 5 μL of 4 nM active HPK1 (SignalChem M23-11G) prepared in the buffer was added to the plate. The enzyme concentration given was based on the given stock concentration reported by the vender. […] After one hour incubation at 25° C., the plates were read on a PHERAstar FS plate reader (BMG Labtech). Ki values were determined.
For orientation: In TR-FRET formats the signal depends on donor and acceptor labels being close together.

Sequence of HPK1 (Q92918 1-346): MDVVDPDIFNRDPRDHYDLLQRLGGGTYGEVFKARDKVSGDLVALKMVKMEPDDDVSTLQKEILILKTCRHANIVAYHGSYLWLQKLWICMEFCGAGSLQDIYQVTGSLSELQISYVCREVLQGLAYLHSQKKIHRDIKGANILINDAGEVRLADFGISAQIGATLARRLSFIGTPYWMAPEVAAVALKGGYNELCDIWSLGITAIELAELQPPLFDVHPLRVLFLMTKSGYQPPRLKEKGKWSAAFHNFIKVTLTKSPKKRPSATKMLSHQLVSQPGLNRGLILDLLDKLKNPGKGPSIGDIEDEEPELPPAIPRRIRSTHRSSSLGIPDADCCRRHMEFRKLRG

As a reminder, the Ki is a measure of affinity in units of concentration, obtained from inhibition or displacement. Regarding `COc1cccc(F)c1-c1nccc(C(=O)Nc2cc(F)c(N3CCC3)cc2N2C[C@@H]3C[C@H]2CN3)n1` [Example 29, N-(4-(Azetidin-1-yl)-2-((1S,4S)-2,5-diazabicyclo[2.2.1]heptan-2-yl)-5-fluorophenyl)-2-(2-fluoro-6-methoxyphenyl)pyrimidine-4-carboxamide], the Ki was < 0.1 µM.

In the case of `COc1cccc(F)c1-c1nccc(C(=O)Nc2cc(F)c(CN3CCOCC3)cc2N2C[C@@H]3C[C@H]2CN3)n1` [Example 30, N-(2-((1S,4S)-2,5-Diazabicyclo[2.2.1]heptan-2-yl)-5-fluoro-4-(morpholinomethyl)phenyl)-2-(2-fluoro-6-methoxyphenyl)pyrimidine-4-carboxamide], the Ki is < 0.1 µM.

As to `COc1cccc(F)c1-c1nccc(C(=O)Nc2ccc(-c3c(C)nn(C)c3C)cc2N2C[C@@H]3C[C@H]2CN3)n1` [Example 27, N-(2-((1S,4S)-2,5-Diazabicyclo[2.2.1]heptan-2-yl)-4-(1,3,5-trimethyl-1H-pyrazol-4-yl)phenyl)-2-(2-fluoro-6-methoxyphenyl)pyrimidine-4-carboxamide], the Ki is < 0.1 µM.

For `COc1cccc(F)c1-c1nccc(C(=O)Nc2cc(F)c(N3CCOCC3)cc2N2C[C@@H]3C[C@H]2CN3)n1` [Example 28, N-(2-((1S,4S)-2,5-Diazabicyclo[2.2.1]heptan-2-yl)-5-fluoro-4-morpholinophenyl)-2-(2-fluoro-6-methoxyphenyl)pyrimidine-4-carboxamide], the inhibitory constant (Ki) was < 0.1 µM.
